Experimental data from the NIST ThermoML archive (doi:10.1016/j.jct.2014.01.012).
± gives the expanded uncertainty stated by the source.

Experiment: xn = mol fraction of the nth substance listed
Conditions: 101 kPa, Liquid; for mass density: Vibrating tube method; for speed of sound: Sing-around technique in a fixed-path interferometer

CCCCCCn1cc[n+](C)c1.F[P-](F)(F)(F)(F)F [1-hexyl-3-methylimidazolium hexafluorophosphate] + CCOC(C)=O
mass density (308.15 K, x1 = 0.09053): 970.46 ± 0.23 kg/m3
mass density (308.15 K, x1 = 0.1751): 1033.19 ± 0.29 kg/m3
mass density (308.15 K, x1 = 0.2748): 1089.85 ± 0.47 kg/m3
mass density (308.15 K, x1 = 0.3638): 1128.89 ± 0.7 kg/m3
mass density (308.15 K, x1 = 0.4747): 1168.92 ± 1.1 kg/m3
mass density (308.15 K, x1 = 0.5959): 1203.51 ± 1.6 kg/m3
mass density (308.15 K, x1 = 0.6988): 1227.75 ± 2.1 kg/m3
mass density (308.15 K, x1 = 0.7782): 1243.95 ± 2.5 kg/m3
mass density (308.15 K, x1 = 0.8784): 1261.82 ± 3.2 kg/m3
mass density (308.15 K, x1 = 0.9562): 1273.69 ± 3.8 kg/m3
mass density (308.15 K, x1 = 1): 1279.4 ± 4.1 kg/m3
speed of sound (313.15 K, x1 = 0.09053): 1120.9 ± 1.3 m/s
speed of sound (313.15 K, x1 = 0.1751): 1169.4 ± 1.4 m/s
speed of sound (313.15 K, x1 = 0.2748): 1208.5 ± 1.6 m/s
speed of sound (313.15 K, x1 = 0.3638): 1246.5 ± 1.8 m/s
speed of sound (313.15 K, x1 = 0.4747): 1282.8 ± 2 m/s
speed of sound (313.15 K, x1 = 0.5959): 1313.8 ± 2.3 m/s
speed of sound (313.15 K, x1 = 0.6988): 1337.7 ± 2.5 m/s
speed of sound (313.15 K, x1 = 0.7782): 1349.8 ± 2.7 m/s
speed of sound (313.15 K, x1 = 0.8784): 1359.6 ± 2.9 m/s
speed of sound (313.15 K, x1 = 0.9562): 1378 ± 3.1 m/s
speed of sound (313.15 K, x1 = 1): 1386 ± 3.2 m/s
mass density (313.15 K, x1 = 0.09053): 964.46 ± 0.23 kg/m3
mass density (313.15 K, x1 = 0.1751): 1027.59 ± 0.28 kg/m3
mass density (313.15 K, x1 = 0.2748): 1084.79 ± 0.47 kg/m3
mass density (313.15 K, x1 = 0.3638): 1124.28 ± 0.7 kg/m3
mass density (313.15 K, x1 = 0.4747): 1164.75 ± 1.1 kg/m3
mass density (313.15 K, x1 = 0.5959): 1199.65 ± 1.6 kg/m3
mass density (313.15 K, x1 = 0.6988): 1224.15 ± 2.1 kg/m3
mass density (313.15 K, x1 = 0.7782): 1240.32 ± 2.5 kg/m3
mass density (313.15 K, x1 = 0.8784): 1258.46 ± 3.2 kg/m3
mass density (313.15 K, x1 = 0.9562): 1270.35 ± 3.7 kg/m3
mass density (313.15 K, x1 = 1): 1275.48 ± 4.1 kg/m3
speed of sound (318.15 K, x1 = 0.09053): 1100.5 ± 1.3 m/s
speed of sound (318.15 K, x1 = 0.1751): 1150.8 ± 1.4 m/s
speed of sound (318.15 K, x1 = 0.2748): 1191.3 ± 1.6 m/s
speed of sound (318.15 K, x1 = 0.3638): 1231.9 ± 1.8 m/s
speed of sound (318.15 K, x1 = 0.4747): 1268.4 ± 2 m/s
speed of sound (318.15 K, x1 = 0.5959): 1300.3 ± 2.3 m/s
speed of sound (318.15 K, x1 = 0.6988): 1324.8 ± 2.5 m/s
speed of sound (318.15 K, x1 = 0.7782): 1337.1 ± 2.7 m/s
speed of sound (318.15 K, x1 = 0.8784): 1348.4 ± 2.9 m/s
speed of sound (318.15 K, x1 = 0.9562): 1366 ± 3.1 m/s
speed of sound (318.15 K, x1 = 1): 1374.2 ± 3.2 m/s
mass density (318.15 K, x1 = 0.09053): 960.532 ± 0.23 kg/m3
mass density (318.15 K, x1 = 0.1751): 1023.8 ± 0.28 kg/m3
mass density (318.15 K, x1 = 0.2748): 1080.46 ± 0.46 kg/m3
mass density (318.15 K, x1 = 0.3638): 1119.61 ± 0.69 kg/m3
mass density (318.15 K, x1 = 0.4747): 1160.23 ± 1.1 kg/m3
mass density (318.15 K, x1 = 0.5959): 1195.59 ± 1.6 kg/m3
mass density (318.15 K, x1 = 0.6988): 1220.56 ± 2.1 kg/m3
mass density (318.15 K, x1 = 0.7782): 1236.86 ± 2.5 kg/m3
mass density (318.15 K, x1 = 0.8784): 1254.52 ± 3.2 kg/m3
mass density (318.15 K, x1 = 0.9562): 1266.02 ± 3.7 kg/m3
mass density (318.15 K, x1 = 1): 1271.56 ± 4 kg/m3
speed of sound (323.15 K, x1 = 0.09053): 1080.2 ± 1.3 m/s
speed of sound (323.15 K, x1 = 0.1751): 1132.3 ± 1.4 m/s
speed of sound (323.15 K, x1 = 0.2748): 1174.3 ± 1.6 m/s
speed of sound (323.15 K, x1 = 0.3638): 1216.3 ± 1.8 m/s
speed of sound (323.15 K, x1 = 0.4747): 1254.2 ± 2 m/s
speed of sound (323.15 K, x1 = 0.5959): 1287.2 ± 2.3 m/s
speed of sound (323.15 K, x1 = 0.6988): 1311.7 ± 2.5 m/s
speed of sound (323.15 K, x1 = 0.7782): 1324.4 ± 2.7 m/s
speed of sound (323.15 K, x1 = 0.8784): 1335.4 ± 2.9 m/s
speed of sound (323.15 K, x1 = 0.9562): 1355.1 ± 3.1 m/s
speed of sound (323.15 K, x1 = 1): 1362.5 ± 3.2 m/s
mass density (323.15 K, x1 = 0.09053): 955.246 ± 0.24 kg/m3
mass density (323.15 K, x1 = 0.1751): 1018.76 ± 0.28 kg/m3
mass density (323.15 K, x1 = 0.2748): 1075.54 ± 0.46 kg/m3
mass density (323.15 K, x1 = 0.3638): 1114.9 ± 0.68 kg/m3
mass density (323.15 K, x1 = 0.4747): 1155.92 ± 1 kg/m3
mass density (323.15 K, x1 = 0.5959): 1191.86 ± 1.5 kg/m3
mass density (323.15 K, x1 = 0.6988): 1217.05 ± 2.1 kg/m3
mass density (323.15 K, x1 = 0.7782): 1233.69 ± 2.5 kg/m3
mass density (323.15 K, x1 = 0.8784): 1251.25 ± 3.1 kg/m3
mass density (323.15 K, x1 = 0.9562): 1262.25 ± 3.7 kg/m3
mass density (323.15 K, x1 = 1): 1267.63 ± 4 kg/m3
